Assays:
Assay in all cases: relative viability (nuclei count vs DMSO), 5 days (fraction); higher = more cells survive
NCI-H1355 = test system: NCI-H1355
Procedure, shortened: (§1)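 Relative viability equals treated-well nuclei counts divided by vehicle-well nuclei counts. Counts came from 4× images of lung cancer cell lines grown in 1536-well plates for 5 days after pin-tool dosing on the day after seeding. Dosing used one drug alone or a fixed anchor-drug dose plus five library-drug doses (not always all listed) in √10 steps, and values are medians of duplicate plates.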

NCI-H2087 = test system: NCI-H2087
Procedure, shortened: as §1

EKVX = test system: EKVX
Procedure, shortened: as §1

SK-MES-1 = test system: SK-MES-1
Procedure, shortened: as §1

NCI-H1792 = test system: NCI-H1792
Procedure, shortened: as §1

NCI-H647 = test system: NCI-H647
Procedure, shortened: as §1

NCI-H1437 = test system: NCI-H1437
Procedure, shortened: as §1

NCI-H2170 = test system: NCI-H2170
Procedure, shortened: as §1

NCI-H2228 = test system: NCI-H2228
Procedure, shortened: as §1

NCI-H1734 = test system: NCI-H1734
Procedure, shortened: as §1

NCI-H2405 = test system: NCI-H2405
Procedure, shortened: as §1

NCI-H1395 = test system: NCI-H1395
Procedure, shortened: as §1

SMILES: COc1cc(N2CCC(C(N)=O)CC2)ccc1Nc1nc(N)c(Cl)c(Nc2ccccc2S(=O)(=O)C(C)C)n1 [HG-5-88-01] + CCNC(=O)c1noc(-c2cc(C(C)C)c(O)cc2O)c1-c1ccc(CN2CCOCC2)cc1 [Luminespib] (partner 0.01 µM)
- relative viability (NCI-H1355; first compound 0.4 µM): 0.703
- relative viability (NCI-H1355; first compound 1.265 µM): 0.617
- relative viability (NCI-H1355; first compound 4 µM): 0.809
- relative viability (NCI-H2087; first compound 0.04 µM): 0.173
- relative viability (NCI-H2087; first compound 0.1265 µM): 0.228
- relative viability (NCI-H2087; first compound 0.4 µM): 0.173
- relative viability (NCI-H2087; first compound 1.265 µM): 0.19
- relative viability (NCI-H2087; first compound 4 µM): 0.204
- relative viability (EKVX; first compound 0.04 µM): 0.892
- relative viability (EKVX; first compound 0.1265 µM): 0.838
- relative viability (EKVX; first compound 0.4 µM): 0.752
- relative viability (EKVX; first compound 4 µM): 0.838
- relative viability (SK-MES-1; first compound 0.04 µM): 0.843
- relative viability (SK-MES-1; first compound 0.1265 µM): 0.82
- relative viability (SK-MES-1; first compound 0.4 µM): 0.823
- relative viability (SK-MES-1; first compound 1.265 µM): 0.782
- relative viability (SK-MES-1; first compound 4 µM): 0.689
- relative viability (NCI-H1792; first compound 0.04 µM): 0.442
- relative viability (NCI-H1792; first compound 0.1265 µM): 0.609
- relative viability (NCI-H1792; first compound 0.4 µM): 0.472
- relative viability (NCI-H1792; first compound 1.265 µM): 0.325
- relative viability (NCI-H1792; first compound 4 µM): 0.552
- relative viability (NCI-H647; first compound 0.04 µM): 0.25
- relative viability (NCI-H647; first compound 0.1265 µM): 0.363
- relative viability (NCI-H647; first compound 0.4 µM): 0.13
- relative viability (NCI-H647; first compound 1.265 µM): 0.148
- relative viability (NCI-H647; first compound 4 µM): 0.248
- relative viability (NCI-H1437; first compound 0.04 µM): 1.09
- relative viability (NCI-H1437; first compound 0.1265 µM): 1.1
- relative viability (NCI-H1437; first compound 0.4 µM): 1.07
- relative viability (NCI-H1437; first compound 1.265 µM): 0.998
- relative viability (NCI-H1437; first compound 4 µM): 1.23
- relative viability (NCI-H2170; first compound 0.04 µM): 0.749
- relative viability (NCI-H2170; first compound 0.1265 µM): 0.746
- relative viability (NCI-H2170; first compound 0.4 µM): 0.666
- relative viability (NCI-H2170; first compound 1.265 µM): 0.511
- relative viability (NCI-H2170; first compound 4 µM): 0.784
- relative viability (NCI-H2228; first compound 0.04 µM): 0.117
- relative viability (NCI-H2228; first compound 0.1265 µM): 0.149
- relative viability (NCI-H2228; first compound 0.4 µM): 0.122
- relative viability (NCI-H2228; first compound 1.265 µM): 0.109
- relative viability (NCI-H2228; first compound 4 µM): 0.116
- relative viability (NCI-H1734; first compound 0.04 µM): 0.214
- relative viability (NCI-H1734; first compound 0.1265 µM): 0.166
- relative viability (NCI-H1734; first compound 0.4 µM): 0.171
- relative viability (NCI-H1734; first compound 1.265 µM): 0.19
- relative viability (NCI-H1734; first compound 4 µM): 0.171
- relative viability (NCI-H2405; first compound 0.04 µM): 0.872
- relative viability (NCI-H2405; first compound 0.1265 µM): 0.692
- relative viability (NCI-H2405; first compound 0.4 µM): 0.594
- relative viability (NCI-H2405; first compound 1.265 µM): 0.457
- relative viability (NCI-H2405; first compound 4 µM): 0.673
- relative viability (NCI-H1395; first compound 0.04 µM): 0.723
- relative viability (NCI-H1395; first compound 0.1265 µM): 0.611
- relative viability (NCI-H1395; first compound 0.4 µM): 0.669
- relative viability (NCI-H1395; first compound 1.265 µM): 0.532
- relative viability (NCI-H1395; first compound 4 µM): 0.989

Reference: the supplement of paper PMC10307832
